We go through 3 molecules from patent US11744860B2, “Technology for efficient activation of NKT cells” (RIKEN, priority 2016, dated 2023).

Holding throughout (type): cell-based
Data set [1] relates to human NKT cell line. Put plainly: NKT cell activating action (IFN-γ production) of RK-163-pulsed human CD14 positive cell lines. To be noted: U937 cells, RK-163 100 ng/mL, presence or absence of GM-CSF, 2-48 hr. As to the method: Human CD14 positive cell line THP-1 cells and U937 cells were suspended in RPMI1640/10% FBS culture medium to 1-3×10^6 cells/ml, and seeded in a 24-well culture plate (Falcon) at a cell density of 1 mL/well. Simultaneously, RK-163 (bulk powder was dissolved in PBS added with DMSO and 0.5% Tween 20) was added to a final concentration 100 ng/mL, […] to give “RK-163-pulsed human CD14 positive cell line”.
iPS-CD14 positive cells were cultured for 8-48 hr in the presence of RK-163 in the same manner as for THP-1 and U937 to give “RK-163-pulsed human iPS-CD14 positive cell line”.
[…] After culturing, the recovered cells were washed twice by centrifugation, and the number of viable cells after Trypan Blue staining was calculated by TC20™ Automated Cell Counter. RK-163-pulsed cells and human NKT cell line were respectively suspended in 10% fetal bovine serum (Sigma, Lot No. 114K525)-added RMPI-1640 (Invitrogen) to 1×10^6/mL, each cell suspension was seeded at a cell concentration of 1×10^5/0.1 mL/well in a 96-well round-bottomed culture plate, and the cells were cultured at 37° C., 5% CO2 for 48 hr. After culturing, 200 μL of supernatant was recovered, and the produced and secreted IFN-γ was measured using a commercially available ELISA kit (BD Biosciences). […]

For data set [2], the system named is human NKT cell line. The data set can be described thus: NKT cell activating action (IFN-γ production), co-culture of ligand-pulsed cells with human NKT cell line, ELISA. To be noted: ligand 100 ng/mL; for IFN-γ production from NKT cells induced by ligand-pulsed CD14 positive cells: 48 hr pulse, 1×10^5 pulsed cells with 1×10^5 human NKT cells, 48 hr. The text has this: For preparation of the cells obtained by culturing human CD14 positive cells (monocytes) immediately after separation using anti-CD14 antibody and human CD14 negative cells or human Elu-CD14 positive cells (monocytes) for 2 days with GM-CSF and NKT cell ligand RK-163 (respectively called “RK-163-pulsed human CD14 positive cell”, “RK-163-pulsed human CD14 negative cell”, “RK-163-pulsed human Elu-CD14 positive cell”), and the dendritic cells induced to differentiate in 2)-(2) by culturing for 6 days with addition of GM-CSF and IL-4 (called “RK-163-pulsed human dendritic cell”), RK-163 (bulk powder was dissolved in PBS added with DMSO and 0.5% Tween 20) was added to each cell to a final concentration of 100 ng/mL, and the cells were cultured at 37° C., 5% CO2 for 48 hr to produce “RK-163-pulsed cells”. After culturing, the recovered cells were centrifugation washed twice, and the number of viable cells after Trypan Blue staining was calculated by TC20™ Automated Cell Counter. RK-163-pulsed cells and human NKT cell line were respectively suspended in 10% fetal calf serum (Sigma, Lot No. 114K525)-added RMPI-1640 (Invitrogen) to 1×10^6/mL, each cell suspension was seeded at a cell concentration of 1×10^5/0.1 mL/well in a 96-well round-bottomed culture plate, and the cells were cultured at 37° C., 5% CO2 for 48 hr. After culturing, 200 μL of supernatant was recovered, and the produced and secreted IFN-γ was measured using a commercially available ELISA kit (BD Biosciences).
CD14 positive cells immediately after separation of anti-CD14 antibody-bound microbeads were separated, pulse-cultured in a medium containing NKT ligand RK-163 or other NKT cell ligand α-GalCer at 100 ng/mL and GM-CSF (53.3 ng/mL) for various times (0, 16, 48, 64 and 72 hr), and an influence on the activity of NKT cells to induce IFN-γ production was compared. As a result, IFN-γ production inducing activity was found from 16 hr after pulsing and high activity was found 48-72 hr later (FIG. 4, left). The recovery rate and survival rate at that time were highest at 48 hrs (FIG. 4, right). […]
Using RCAI-85 (100 ng/mL), RCAI-137 (100 ng/mL) instead of RK-163, CD14 positive cells (monocytes) isolated from human peripheral blood were pulsed for 48 hr to give each ligand-pulsed CD14 positive cell. 1×10^5 RK-163-pulsed CD14 positive cells or other ligand-pulsed CD14 positive cells were seeded in a 96 well round-bottomed plate, and cocultured with 1×10^5 human NKT cells for 48 hr in a 10% FBS-containing complete RPMI-1640 medium, and the concentration of IFN-γ in the culture medium was measured.
(In general: An ELISA detects its analyte on a solid surface through an enzyme-linked reagent.)

The subject of data set [3] is NCI H460 cells (human lung cancer cell line). Put plainly: Cytotoxic activity of NKT cells stimulated with pulsed cells against NCI H460 cells. The source says:
Human NKT cells were stimulated by culturing for 8-10 days with the “RK-163-pulsed human CD14 positive cell” or “RK-163-pulsed human dendritic cell” produced in the same manner as above in a mixed medium of AIM-V (50%) and RPMI-1640 (45%) and containing FCS (5%) (lot suitable for proliferation of iPS cells), sodium pyruvate, NEAA, 2-ME, IL-2 (100 U/mL) (Imunace). The mixing ratio of NKT cells and RK-163-pulsed CD14 positive cells or RK-163-pulsed dendritic cells was set to 1:1.5-5. The obtained human NKT cells were cultured for 4 hr together with NCI H460 cells (human lung cancer cell line) in an FBS (10%)-containing complete RPMI-1640 medium on a 96 well round-bottomed plate and the cytotoxic activity against NCI H460 cells was examined. The number of the target cells (NCI H460 cells) was set to 1×10^4 cells/well and the effector:target ratio was set to 3:1 and 10:1.

Consider `CCCCCCCCCCCCCCCCCCCCCCCCCC(=O)N[C@@H](CO[C@H]1O[C@H](COC(=O)NC)[C@H](O)[C@H](O)[C@H]1O)[C@H](O)[C@H](O)CCCCCCCCCCCCCC` [RK-163], for which the “pulse time from which IFN-γ production inducing activity was found” value is no less than 2 h in the data set on human NKT cell line [1] and no less than 16 h in the data set with human NKT cell line [2] (CD14 positive cells, GM-CSF 53.3 ng/mL, times 0, 16, 48, 64, 72 hr). In addition, in the data set on human NKT cell line [2] (CD14 positive cells, GM-CSF 53.3 ng/mL), the “pulse time with high IFN-γ production inducing activity” value fell in the range of 48 to 72 h. Moreover, in data set [3], the “cytotoxic activity induced on human NKT cells as compared to α-GalCer” value is listed as “stronger”.
As to `CCCCCCCCCCCCCCCCCCCCCCCCCC(=O)N[C@@H](CO[C@H]1O[C@H](COCC)[C@H](O)[C@H](O)[C@H]1O)[C@H](O)[C@H](O)CCCCCCCCCCCCCC` [RCAI-85], the “IFN-γ production from NKT cells induced by ligand-pulsed CD14 positive cells” value in the data set with human NKT cell line [2] is recorded as “strongly induce”.
Turning to `CCCCCCCCCCCCCCCCCCCCCCCCCC(=O)N[C@@H](CO[C@H]1O[C@H](COC(=O)NO)[C@H](O)[C@H](O)[C@H]1O)[C@H](O)[C@H](O)CCCCCCCCCCCCCC` [RCAI-137], in the data set with human NKT cell line [2], the “IFN-γ production from NKT cells induced by ligand-pulsed CD14 positive cells” value is reported as “strongly induce”.
